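GI50 is the concentration that inhibits growth by half. TGI marks complete inhibition of growth.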
Tests used:
Assay in all cases: growth of human tumour cells (NCI), 384-well format; in the data active means GI50 below about 0.43 µM; inactive means the rest
786-0 renal = tested on: 786-0 renal
A498 renal = tested on: A498 renal
A549 NSCLC = tested on: A549 NSCLC
ACHN renal = tested on: ACHN renal
BT-549 breast = tested on: BT-549 breast
CAKI-1 renal = tested on: CAKI-1 renal
CCRF-CEM leukemia = tested on: CCRF-CEM leukemia
COLO 205 colon = tested on: COLO 205 colon
DU-145 prostate = tested on: DU-145 prostate
EKVX NSCLC = tested on: EKVX NSCLC
HCC-2998 colon = tested on: HCC-2998 colon
HCT-116 colon = tested on: HCT-116 colon
HCT-15 colon = tested on: HCT-15 colon
HL-60(TB) leukemia = tested on: HL-60(TB) leukemia
HOP-62 NSCLC = tested on: HOP-62 NSCLC
HOP-92 NSCLC = tested on: HOP-92 NSCLC
HS 578T breast = tested on: HS 578T breast
HT29 colon = tested on: HT29 colon
IGROV1 ovarian = tested on: IGROV1 ovarian
K-562 leukemia = tested on: K-562 leukemia
KM12 colon = tested on: KM12 colon
LOX IMVI melanoma = tested on: LOX IMVI melanoma
M14 melanoma = tested on: M14 melanoma
MALME-3M melanoma = tested on: MALME-3M melanoma
MCF7 breast = tested on: MCF7 breast
MDA-MB-231 breast = tested on: MDA-MB-231 breast
MDA-MB-435 melanoma = tested on: MDA-MB-435 melanoma
MDA-MB-468 breast = tested on: MDA-MB-468 breast
MOLT-4 leukemia = tested on: MOLT-4 leukemia
NCI-H226 lung = tested on: NCI-H226 lung
NCI-H23 lung = tested on: NCI-H23 lung
NCI-H322M lung = tested on: NCI-H322M lung
NCI-H460 NSCLC = tested on: NCI-H460 NSCLC
NCI-H522 lung = tested on: NCI-H522 lung
NCI/ADR-RES ovarian = tested on: NCI/ADR-RES ovarian
OVCAR-3 ovarian = tested on: OVCAR-3 ovarian
OVCAR-4 ovarian = tested on: OVCAR-4 ovarian
OVCAR-5 ovarian = tested on: OVCAR-5 ovarian
OVCAR-8 ovarian = tested on: OVCAR-8 ovarian
PC-3 prostate = tested on: PC-3 prostate
RPMI-8226 leukemia = tested on: RPMI-8226 leukemia
RXF 393 renal = tested on: RXF 393 renal
SF-268 CNS = tested on: SF-268 CNS
SF-295 CNS = tested on: SF-295 CNS
SF-539 CNS = tested on: SF-539 CNS
SK-MEL-2 melanoma = tested on: SK-MEL-2 melanoma
SK-MEL-28 melanoma = tested on: SK-MEL-28 melanoma
SK-MEL-5 melanoma = tested on: SK-MEL-5 melanoma
SK-OV-3 ovarian = tested on: SK-OV-3 ovarian
SN12C renal = tested on: SN12C renal
SNB-19 CNS = tested on: SNB-19 CNS
SNB-75 CNS = tested on: SNB-75 CNS
SR leukemia = tested on: SR leukemia
SW-620 colon = tested on: SW-620 colon
T-47D breast = tested on: T-47D breast
TK-10 renal = tested on: TK-10 renal
U251 glioblastoma = tested on: U251 glioblastoma
UACC-257 melanoma = tested on: UACC-257 melanoma
UACC-62 melanoma = tested on: UACC-62 melanoma
UO-31 renal = tested on: UO-31 renal

Cc1cc(-c2ncc(CC(=O)Nc3ccc(-c4cnccn4)cn3)cc2C)ccn1
34.7 µM: TGI (RPMI-8226 leukemia)
> 100 µM: TGI (786-0 renal) | TGI (A498 renal) | TGI (A549 NSCLC) | TGI (ACHN renal) | TGI (BT-549 breast) | TGI (CAKI-1 renal) | TGI (COLO 205 colon) | TGI (DU-145 prostate) | TGI (EKVX NSCLC) | TGI (HCC-2998 colon) | TGI (HCT-116 colon) | TGI (HCT-15 colon) | TGI (HOP-62 NSCLC) | TGI (HOP-92 NSCLC) | TGI (HS 578T breast) | TGI (HT29 colon) | TGI (IGROV1 ovarian) | TGI (K-562 leukemia) | TGI (KM12 colon) | TGI (LOX IMVI melanoma) | TGI (M14 melanoma) | TGI (MALME-3M melanoma) | TGI (MCF7 breast) | TGI (MDA-MB-231 breast) | TGI (MDA-MB-435 melanoma) | TGI (NCI-H226 lung) | TGI (NCI-H23 lung) | TGI (NCI-H322M lung) | TGI (NCI-H460 NSCLC) | TGI (NCI-H522 lung) | TGI (OVCAR-3 ovarian) | TGI (OVCAR-4 ovarian) | TGI (OVCAR-5 ovarian) | TGI (OVCAR-8 ovarian) | TGI (PC-3 prostate) | TGI (RXF 393 renal) | TGI (SF-268 CNS) | TGI (SF-295 CNS) | TGI (SF-539 CNS) | TGI (SK-MEL-2 melanoma) | TGI (SK-MEL-28 melanoma) | TGI (SK-OV-3 ovarian) | TGI (SN12C renal) | TGI (SNB-19 CNS) | TGI (SNB-75 CNS) | TGI (SW-620 colon) | TGI (TK-10 renal) | TGI (U251 glioblastoma) | TGI (UACC-257 melanoma) | TGI (UACC-62 melanoma)
33.1 µM: TGI (MDA-MB-468 breast)
24.1 µM: TGI (HL-60(TB) leukemia)
> 52.8 µM: TGI (T-47D breast)
27.9 µM: TGI (SR leukemia)
47.3 µM: TGI (NCI/ADR-RES ovarian)
26.2 µM: TGI (MOLT-4 leukemia)
27.2 µM: TGI (SK-MEL-5 melanoma)
inactive: GI50 ([…]-0 renal) 59.5 µM | GI50 (A498 renal) 68.8 µM | GI50 (A549 NSCLC) > 70.5 µM | GI50 (ACHN renal) 64.4 µM | GI50 (BT-549 breast) 32.5 µM | GI50 (CAKI-1 renal) 49.3 µM | GI50 (CCRF-CEM leukemia) 12.2 µM | GI50 (COLO 205 colon) > 93.6 µM | GI50 (DU-145 prostate) > 100 µM | GI50 (EKVX NSCLC) 21.8 µM | GI50 (HCC-2998 colon) > 88.8 µM | GI50 (HCT-116 colon) 29 µM | GI50 (HCT-15 colon) 57.1 µM | GI50 (HL-60(TB) leukemia) 6.52 µM | GI50 (HOP-62 NSCLC) 39.7 µM | GI50 (HOP-92 NSCLC) > 100 µM | GI50 (HS 578T breast) > 100 µM | GI50 (HT29 colon) 74.5 µM | GI50 (IGROV1 ovarian) 56.3 µM | GI50 (K-562 leukemia) 10.4 µM | GI50 (KM12 colon) > 82.9 µM | GI50 (LOX IMVI melanoma) 28.4 µM | GI50 (M14 melanoma) > 100 µM | GI50 (MALME-3M melanoma) > 100 µM | GI50 (MCF7 breast) 27.3 µM | GI50 (MDA-MB-231 breast) > 100 µM | GI50 (MDA-MB-435 melanoma) 38.6 µM | GI50 (MDA-MB-468 breast) 3.43 µM | GI50 (MOLT-4 leukemia) 12.9 µM | GI50 (NCI-H226 lung) 61.6 µM | GI50 (NCI-H23 lung) 20.5 µM | GI50 (NCI-H322M lung) 43 µM | GI50 (NCI-H460 NSCLC) 28.6 µM | GI50 (NCI-H522 lung) 31.5 µM | GI50 (NCI/ADR-RES ovarian) 14.4 µM | GI50 (OVCAR-3 ovarian) > 86.3 µM | GI50 (OVCAR-4 ovarian) 25.5 µM | GI50 (OVCAR-5 ovarian) > 100 µM | GI50 (OVCAR-8 ovarian) 30.3 µM | GI50 (PC-3 prostate) 51.1 µM | GI50 (RPMI-8226 leukemia) 13.8 µM | GI50 (RXF 393 renal) 21.3 µM | GI50 (SF-268 CNS) > 100 µM | GI50 (SF-295 CNS) 49.3 µM | GI50 (SF-539 CNS) > 57.7 µM | GI50 (SK-MEL-2 melanoma) 42.6 µM | GI50 (SK-MEL-28 melanoma) > 100 µM | GI50 (SK-MEL-5 melanoma) 11.6 µM | GI50 (SK-OV-3 ovarian) > 66 µM | GI50 (SN12C renal) 39.2 µM | GI50 (SNB-19 CNS) 64 µM | GI50 (SNB-75 CNS) > 58.8 µM | GI50 (SR leukemia) 3.81 µM | GI50 (SW-620 colon) 88.6 µM | GI50 (T-47D breast) 9.51 µM | GI50 (TK-10 renal) 65.7 µM | GI50 (U251 glioblastoma) 48.6 µM | GI50 (UACC-257 melanoma) 27.8 µM | GI50 (UACC-62 melanoma) 56.1 µM
49 µM: TGI (CCRF-CEM leukemia)

CN1CC[C@@H](c2c(O)cc(O)c3c(=O)cc(-c4ccccc4Cl)oc23)[C@@H](O)C1
0.0639 µM: TGI (NCI-H226 lung)
0.078 µM: TGI (OVCAR-8 ovarian)
0.0708 µM: TGI (OVCAR-5 ovarian)
active: GI50 (A549 NSCLC) 0.0349 µM | GI50 (BT-549 breast) 0.0256 µM | GI50 (CAKI-1 renal) 0.0351 µM | GI50 (CCRF-CEM leukemia) 0.0194 µM | GI50 (COLO 205 colon) 0.0313 µM | GI50 (EKVX NSCLC) 0.0599 µM | GI50 (HCC-2998 colon) 0.0424 µM | GI50 (HL-60(TB) leukemia) 0.0133 µM | GI50 (HOP-62 NSCLC) 0.0202 µM | GI50 (HS 578T breast) 0.0228 µM | GI50 (KM12 colon) 0.0279 µM | GI50 (LOX IMVI melanoma) 0.0208 µM | GI50 (M14 melanoma) 0.0325 µM | GI50 (MALME-3M melanoma) 0.0425 µM | GI50 (MDA-MB-435 melanoma) 0.103 µM | GI50 (MDA-MB-468 breast) 0.0283 µM | GI50 (MOLT-4 leukemia) 0.0237 µM | GI50 (NCI-H226 lung) 0.0187 µM | GI50 (NCI-H23 lung) 0.0301 µM | GI50 (NCI-H322M lung) 0.0337 µM | GI50 (NCI-H460 NSCLC) 0.0215 µM | GI50 (NCI-H522 lung) 0.109 µM | GI50 (NCI/ADR-RES ovarian) 0.0896 µM | GI50 (OVCAR-3 ovarian) 0.0331 µM | GI50 (OVCAR-4 ovarian) 0.0596 µM | GI50 (OVCAR-5 ovarian) 0.0242 µM | GI50 (OVCAR-8 ovarian) 0.025 µM | GI50 (RPMI-8226 leukemia) 0.0227 µM | GI50 (RXF 393 renal) 0.0191 µM | GI50 (SF-268 CNS) 0.0178 µM | GI50 (SF-539 CNS) 0.0247 µM | GI50 (SK-MEL-28 melanoma) 0.0285 µM | GI50 (SK-MEL-5 melanoma) 0.0298 µM | GI50 (SN12C renal) 0.028 µM | GI50 (SNB-19 CNS) 0.0503 µM | GI50 (SNB-75 CNS) 0.113 µM | GI50 (SR leukemia) 0.0102 µM | GI50 (SW-620 colon) 0.0348 µM | GI50 (TK-10 renal) 0.0357 µM | GI50 (UACC-257 melanoma) 0.0515 µM | GI50 (UACC-62 melanoma) 0.0178 µM | GI50 (UO-31 renal) 0.036 µM
0.299 µM: TGI (EKVX NSCLC)
0.319 µM: TGI (NCI/ADR-RES ovarian)
0.0874 µM: TGI (MDA-MB-468 breast)
0.0568 µM: TGI (SK-MEL-5 melanoma)
0.0824 µM: TGI (COLO 205 colon)
0.0479 µM: TGI (HS 578T breast)
0.0407 µM: TGI (UACC-62 melanoma)
0.141 µM: TGI (MALME-3M melanoma)
0.0386 µM: TGI (RXF 393 renal) | TGI (SF-268 CNS)
0.112 µM: TGI (NCI-H23 lung)
0.255 µM: TGI (MDA-MB-435 melanoma)
0.072 µM: TGI (SF-539 CNS)
0.0222 µM: TGI (SR leukemia)
0.0263 µM: TGI (HL-60(TB) leukemia)
0.282 µM: TGI (OVCAR-4 ovarian)
> 100 µM: TGI (A549 NSCLC) | TGI (CAKI-1 renal) | TGI (SNB-19 CNS) | TGI (TK-10 renal) | TGI (UO-31 renal)
0.0632 µM: TGI (LOX IMVI melanoma)
0.204 µM: TGI (SW-620 colon)
0.0496 µM: TGI (NCI-H460 NSCLC)
0.173 µM: TGI (UACC-257 melanoma)
0.151 µM: TGI (HCC-2998 colon)
0.244 µM: TGI (KM12 colon) | TGI (SNB-75 CNS)
0.132 µM: TGI (SK-MEL-28 melanoma)
0.0456 µM: TGI (HOP-62 NSCLC)
0.0513 µM: TGI (RPMI-8226 leukemia)
0.0911 µM: TGI (SN12C renal)
0.252 µM: TGI (NCI-H522 lung)
0.126 µM: TGI (NCI-H322M lung)
0.095 µM: TGI (OVCAR-3 ovarian)
0.045 µM: TGI (MOLT-4 leukemia)
0.116 µM: TGI (M14 melanoma)
0.0361 µM: TGI (CCRF-CEM leukemia)
0.0908 µM: TGI (BT-549 breast)

Reference: PubChem BioAssay (NCI)
